Laboratory results taken from patent US7393812B2, “Methylidene mevalonates and their use as herbicides” (Dow AgroSciences LLC, priority 2004, dated 2008).

Legend:
Assay in all cases: Post-emergent evaluation
Format in all cases: in vivo
Conditions in all cases: after 2 weeks
[1] = system: chickweed (Stellaria media, STEME)
Description: (§1) Seeds of the desired test plant species were planted in Grace-Sierra MetroMix® 306 planting mixture, which typically has a pH of 6.0 to 6.8 and an organic matter content of about 30 percent, in plastic pots with a surface area of 64 square centimeters. When required to ensure good germination and healthy plants, a fungicide treatment and/or other chemical or physical treatment was applied. The plants were grown for 7-21 days in a greenhouse with an approximate 15 hr photoperiod which was maintained at about 23-29° C. during the day and 22-28° C. during the night. Nutrients and water were added on a regular basis and supplemental lighting was provided with overhead metal halide 1000-Watt lamps as necessary. The plants were employed for testing when they reached the first or second true leaf stage.
(§2) A weighed amount, determined by the highest rate to be tested, of each test compound was placed in a 20 mL glass vial and was dissolved in 4 mL of a 97:3 v/v (volume/volume) mixture of acetone and dimethyl sulfoxide (DMSO) to obtain concentrated stock solutions. […] The concentrated stock solutions obtained were diluted with an aqueous mixture containing acetone, water, isopropyl alcohol, DMSO, Atplus 411F crop oil concentrate, and Triton X-155 surfactant in a 48.5:39:10:1.5:1.0:0.02 v/v ratio to obtain spray solutions of known concentration. The solutions containing the highest concentration to be tested were prepared by diluting 2 mL aliquots of the stock solution with 13 mL of the mixture and lower concentrations were prepared by serial dilution of the stock solution. Approximately 1.5 mL aliquots of each solution of known concentration were sprayed evenly onto each of the test plant pots using a DeVilbiss atomizer driven by compressed air pressure of 2 to 4 psi ([…]) to obtain thorough coverage of each plant. Control plants were sprayed in the same manner with the aqueous mixture. In this test an application rate of 1 ppm results in the application of approximately 1 g/Ha.
(§3) The treated plants and control plants were placed in a greenhouse as described above and watered by sub-irrigation to prevent wash-off of the test compounds. […] Species abbreviations as described for Table I with the following additions: soybean (Glycine max, GLXMA), rape (Brassica napus, BRSNN), chickweed (Stellaria media, STEME), cocklebur (Xanthium strumarium XANST), lambsquarters (Chenopodium album, CHEAL), violet (Viola tricolor, VIOTR), bindweed (Polygonum convolvulus, POLCO), spurge (Euphorbia heterophylla, EPHHL), Canada thistle (Cirsium arvense, CIRAR), corn (Zea mays, ZEAMX), rice (Oryza sativa, ORYSA), wheat (Triticum aestivum, TRZAS), crabgrass (Digitaria sanguinalis, DIGSA), shattercane (Sorghum vulgare, SORVU) and yellow nutsedge (Cyperus esculentus, CYPES).
(§4) By applying the well-accepted probit analysis as described by J. Berkson in Journal of the American Statistical […], 48, 565 (1953) and by D. Finney in “Probit Analysis” Cambridge University Press (1952), similar data can be used to calculate GR80 values, which are defined as growth reduction factors that correspond to the effective dose of herbicide required to kill or control 80 percent of a target plant. Species abbreviations are as previously defined.

[2] = system: violet (Viola tricolor, VIOTR)
Description: as §1, §2, §3, §4

[3] = system: giant foxtail (Setaria faberi, SETFA)
Description: as §1, §2, §3, §4

[4] = system: shattercane (Sorghum vulgare, SORVU)
Description: as §1, §2, §3, §4

[5] = system: spurge (Euphorbia heterophylla, EPHHL)
Description: as §1, §2
(§5) The treated plants and control plants were placed in a greenhouse as described above and watered by sub-irrigation to prevent wash-off of the test compounds. After 2 weeks the condition of the test plants as compared with that of the untreated plants was determined visually and scored on a scale of 0 to 100 percent where 0 corresponds to no injury and 100 corresponds to complete kill. Species abbreviations as described for Table I with the following additions: soybean (Glycine max, GLXMA), rape (Brassica napus, BRSNN), chickweed (Stellaria media, STEME), cocklebur (Xanthium strumarium XANST), lambsquarters (Chenopodium album, CHEAL), violet (Viola tricolor, VIOTR), bindweed (Polygonum convolvulus, POLCO), spurge (Euphorbia heterophylla, EPHHL), Canada thistle (Cirsium arvense, CIRAR), corn (Zea mays, ZEAMX), rice (Oryza sativa, ORYSA), wheat (Triticum aestivum, TRZAS), crabgrass (Digitaria sanguinalis, DIGSA), shattercane (Sorghum vulgare, SORVU) and yellow nutsedge (Cyperus esculentus, CYPES).

[6] = system: wild oats (Avena fatua, AVEFA)
Description: as §1, §2, §5

[7] = system: rice (Oryza sativa, ORYSA)
Description: as §1, §2, §5

corn (Zea mays, ZEAMX) = system: corn (Zea mays, ZEAMX)
Description: as §1, §2, §5

[8] = system: cocklebur (Xanthium strumarium XANST)
Description: as §1, §2, §5

[9] = system: pigweed (Amaranthus spp., AMARE)
Description: as §1, §2, §5

[10] = system: rape (Brassica napus, BRSNN)
Description: as §1, §2, §5

Structure (SMILES): C=C(CO)C(C)(O)CC(=O)O (stereo not shown) [methylidene mevalonate, 3-hydroxy-4-(hydroxymethyl)-3-methylpent-4-enoic acid]
- Postemergent % Control ([1]; spray concentration 125 ppm): 0%
- Postemergent % Control ([1]; spray concentration 250 ppm): 0%
- Postemergent % Control ([1]; spray concentration 500 ppm): 0%
- Postemergent % Control ([1]; spray concentration 1000 ppm): 20%
- Postemergent % Control ([1]; spray concentration 2000 ppm): 40%
- Postemergent % Control ([2]; spray concentration 125 ppm): 0%
- Postemergent % Control ([2]; spray concentration 250 ppm): 0%
- Postemergent % Control ([2]; spray concentration 500 ppm): 0%
- Postemergent % Control ([2]; spray concentration 1000 ppm): 25%
- Postemergent % Control ([2]; spray concentration 2000 ppm): 30%
- Postemergent % Control ([3]; spray concentration 125 ppm): 30%
- Postemergent % Control ([3]; spray concentration 250 ppm): 70%
- Postemergent % Control ([3]; spray concentration 500 ppm): 70%
- Postemergent % Control ([3]; spray concentration 1000 ppm): 80%
- Postemergent % Control ([3]; spray concentration 2000 ppm): 90%
- Postemergent % Control ([4]; spray concentration 125 ppm): 0%
- Postemergent % Control ([4]; spray concentration 250 ppm): 50%
- Postemergent % Control ([4]; spray concentration 500 ppm): 90%
- Postemergent % Control ([4]; spray concentration 1000 ppm): 90%
- Postemergent % Control ([4]; spray concentration 2000 ppm): 90%
- Postemergent % Control ([5]; spray concentration 125 ppm): 30%
- Postemergent % Control ([5]; spray concentration 250 ppm): 30%
- Postemergent % Control ([5]; spray concentration 500 ppm): 50%
- Postemergent % Control ([5]; spray concentration 1000 ppm): 60%
- Postemergent % Control ([5]; spray concentration 2000 ppm): 70%
- Postemergent % Control ([6]; spray concentration 125 ppm): 0%
- Postemergent % Control ([6]; spray concentration 250 ppm): 0%
- Postemergent % Control ([6]; spray concentration 500 ppm): 20%
- Postemergent % Control ([6]; spray concentration 1000 ppm): 85%
- Postemergent % Control ([6]; spray concentration 2000 ppm): 90%
- Postemergent % Control ([7]; spray concentration 125 ppm): 0%
- Postemergent % Control ([7]; spray concentration 250 ppm): 30%
- Postemergent % Control ([7]; spray concentration 500 ppm): 40%
- Postemergent % Control ([7]; spray concentration 1000 ppm): 80%
- Postemergent % Control ([7]; spray concentration 2000 ppm): 80%
- Postemergent % Control (corn (Zea mays, ZEAMX); spray concentration 125 ppm): 0%
- Postemergent % Control (corn (Zea mays, ZEAMX); spray concentration 250 ppm): 20%
- Postemergent % Control (corn (Zea mays, ZEAMX); spray concentration 500 ppm): 60%
- Postemergent % Control (corn (Zea mays, ZEAMX); spray concentration 1000 ppm): 98%
- Postemergent % Control (corn (Zea mays, ZEAMX); spray concentration 2000 ppm): 98%
- Postemergent % Control ([8]; spray concentration 125 ppm): 0%
- Postemergent % Control ([8]; spray concentration 250 ppm): 5%
- Postemergent % Control ([8]; spray concentration 500 ppm): 10%
- Postemergent % Control ([8]; spray concentration 1000 ppm): 20%
- Postemergent % Control ([8]; spray concentration 2000 ppm): 20%
- Postemergent % Control ([9]; spray concentration 125 ppm): 10%
- Postemergent % Control ([9]; spray concentration 250 ppm): 30%
- Postemergent % Control ([9]; spray concentration 500 ppm): 100%
- Postemergent % Control ([9]; spray concentration 1000 ppm): 100%
- Postemergent % Control ([9]; spray concentration 2000 ppm): 100%
- Postemergent % Control ([10]; spray concentration 125 ppm): 0%
- Postemergent % Control ([10]; spray concentration 250 ppm): 10%
- Postemergent % Control ([10]; spray concentration 500 ppm): 50%
- Postemergent % Control ([10]; spray concentration 1000 ppm): 50%
- Postemergent % Control ([10]; spray concentration 2000 ppm): 60%
